Where a SMILES comes first, the peptide text is derived from it. The star is where a group is joined. X1 = CCN(CC)CCCCC(C)Nc1c2ccccc2nc2c(C(=O)NCCCO/N=C/C(=O)*)cccc12

The results in this text go back to ChEMBL document CHEMBL4325825, “Medicinal chemistry of acridine and its analogues” (Medchemcomm, 2018).

The test system of one assay is Calf thymus DNA. The assay can be described thus: Binding affinity to calf thymus DNA. The following applies: Bos taurus. It counts as nucleic-acid assay.
Assay [1] has as its target Amyloid-beta precursor protein (Homo sapiens, UniProt P05067). The assay can be described thus: Inhibition of amyloid beta (1 to 40) (unknown origin) self aggregation.
In another assay the test system is DNA. The assay can be described thus: Binding affinity to DNA (unknown origin). It counts as nucleic-acid assay.
The target in another assay is Cholinesterase (Homo sapiens, UniProt P06276). The assay can be described thus: Inhibition of BuChE (unknown origin).
The target of assay [2] is Acetylcholinesterase (Homo sapiens, UniProt P22303). Description: Inhibition of AChE (unknown origin).
Assay [3] concerns the target T1, Acetylcholinesterase (Mus musculus, UniProt P21836).
T1 sequence (P21836 whole entry): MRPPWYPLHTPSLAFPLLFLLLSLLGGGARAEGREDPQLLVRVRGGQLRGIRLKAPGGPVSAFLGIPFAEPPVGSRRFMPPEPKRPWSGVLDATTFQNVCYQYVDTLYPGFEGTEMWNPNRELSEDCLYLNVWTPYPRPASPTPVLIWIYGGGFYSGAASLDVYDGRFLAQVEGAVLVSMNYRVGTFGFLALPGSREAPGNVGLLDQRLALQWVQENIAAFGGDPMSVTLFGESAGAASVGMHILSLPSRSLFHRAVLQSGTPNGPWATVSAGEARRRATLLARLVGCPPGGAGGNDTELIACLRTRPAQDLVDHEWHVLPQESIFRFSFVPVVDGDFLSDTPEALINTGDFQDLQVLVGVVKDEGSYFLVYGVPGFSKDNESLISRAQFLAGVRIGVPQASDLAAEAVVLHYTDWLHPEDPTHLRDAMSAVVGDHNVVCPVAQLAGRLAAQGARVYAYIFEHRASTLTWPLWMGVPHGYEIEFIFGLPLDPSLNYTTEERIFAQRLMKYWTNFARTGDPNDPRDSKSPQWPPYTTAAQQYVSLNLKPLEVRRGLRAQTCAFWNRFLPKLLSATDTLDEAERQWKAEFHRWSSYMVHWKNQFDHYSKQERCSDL
The assay can be described thus: Inhibition of AChE in mouse brain. It counts as tissue-based.

Sequence of Acetylcholinesterase (Homo sapiens, UniProt P22303) (P22303 whole entry): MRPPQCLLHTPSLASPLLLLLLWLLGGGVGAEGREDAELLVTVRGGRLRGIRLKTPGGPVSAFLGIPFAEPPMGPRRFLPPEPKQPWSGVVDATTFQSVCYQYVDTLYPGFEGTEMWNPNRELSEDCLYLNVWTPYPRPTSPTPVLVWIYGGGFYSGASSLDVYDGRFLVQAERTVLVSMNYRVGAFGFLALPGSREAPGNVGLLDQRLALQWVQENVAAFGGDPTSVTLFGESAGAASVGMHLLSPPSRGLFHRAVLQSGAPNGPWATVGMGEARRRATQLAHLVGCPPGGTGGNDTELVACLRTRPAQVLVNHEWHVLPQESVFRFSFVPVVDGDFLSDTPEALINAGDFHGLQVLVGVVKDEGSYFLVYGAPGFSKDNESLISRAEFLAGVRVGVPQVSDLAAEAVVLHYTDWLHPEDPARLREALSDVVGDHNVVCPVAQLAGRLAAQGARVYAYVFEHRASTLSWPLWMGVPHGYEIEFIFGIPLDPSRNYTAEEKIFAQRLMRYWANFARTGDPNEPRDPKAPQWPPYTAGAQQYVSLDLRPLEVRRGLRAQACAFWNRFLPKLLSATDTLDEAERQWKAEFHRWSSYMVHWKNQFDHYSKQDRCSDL
Sequence of Cholinesterase (P06276 whole entry): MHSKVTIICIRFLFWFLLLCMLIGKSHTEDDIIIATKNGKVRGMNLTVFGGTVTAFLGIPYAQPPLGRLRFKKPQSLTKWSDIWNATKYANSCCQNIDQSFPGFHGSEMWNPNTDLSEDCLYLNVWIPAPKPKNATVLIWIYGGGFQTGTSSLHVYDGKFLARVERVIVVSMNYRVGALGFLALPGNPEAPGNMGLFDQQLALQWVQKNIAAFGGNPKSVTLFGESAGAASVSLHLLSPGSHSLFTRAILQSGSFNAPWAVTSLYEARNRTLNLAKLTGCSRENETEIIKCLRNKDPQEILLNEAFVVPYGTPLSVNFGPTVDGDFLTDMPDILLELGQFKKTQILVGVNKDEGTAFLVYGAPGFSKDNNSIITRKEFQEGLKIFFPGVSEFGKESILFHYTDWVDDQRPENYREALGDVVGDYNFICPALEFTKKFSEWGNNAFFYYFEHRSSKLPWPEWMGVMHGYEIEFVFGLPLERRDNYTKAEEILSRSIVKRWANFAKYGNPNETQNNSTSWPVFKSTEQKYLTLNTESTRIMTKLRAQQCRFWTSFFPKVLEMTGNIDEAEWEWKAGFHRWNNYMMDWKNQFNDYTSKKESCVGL
Sequence of Amyloid-beta precursor protein (P05067 whole entry): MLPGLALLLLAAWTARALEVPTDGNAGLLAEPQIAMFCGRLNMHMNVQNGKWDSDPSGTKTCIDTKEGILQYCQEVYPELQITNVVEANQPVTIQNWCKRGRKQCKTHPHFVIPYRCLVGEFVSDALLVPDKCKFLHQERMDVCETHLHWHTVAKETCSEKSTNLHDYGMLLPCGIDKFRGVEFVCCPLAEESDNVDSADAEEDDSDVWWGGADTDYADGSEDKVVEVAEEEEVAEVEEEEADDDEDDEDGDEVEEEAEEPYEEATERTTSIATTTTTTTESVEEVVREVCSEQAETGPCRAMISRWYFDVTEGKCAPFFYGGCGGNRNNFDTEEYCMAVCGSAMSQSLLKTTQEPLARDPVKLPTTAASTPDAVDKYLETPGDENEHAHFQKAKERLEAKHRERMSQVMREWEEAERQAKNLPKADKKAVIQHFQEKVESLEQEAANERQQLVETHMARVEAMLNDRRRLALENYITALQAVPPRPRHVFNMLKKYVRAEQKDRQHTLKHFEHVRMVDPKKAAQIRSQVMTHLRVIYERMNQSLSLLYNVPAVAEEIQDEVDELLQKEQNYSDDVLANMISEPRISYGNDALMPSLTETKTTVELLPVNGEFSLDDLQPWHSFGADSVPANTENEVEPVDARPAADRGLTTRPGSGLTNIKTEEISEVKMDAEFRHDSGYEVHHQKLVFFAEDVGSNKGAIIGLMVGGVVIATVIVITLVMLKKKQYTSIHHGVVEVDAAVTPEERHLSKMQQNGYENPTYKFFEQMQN

The compound `COc1ccc2c(NCCCNCCCNCCn3cnc4c(N)nc(N)nc43)c3cc(Cl)ccc3nc2c1` returned a K in the assay on Calf thymus DNA of 10000 to 1e+06 M⁻¹.

For the compound `COc1ccc2nc3cc(Cl)ccc3c(NCCCNCCCNCCn3cnc4c(N)ncnc43)c2c1`, the K in the assay on Calf thymus DNA was in the range of 10000 to 1e+06 M⁻¹.

`CCN(CC)CCCCC(C)Nc1c2ccccc2nc2c(C(=O)NCCCO/N=C/C(=O)NCCCC[C@@H]3NC(=O)CNC(=O)[C@@H]4CCCN4C(=O)[C@H](CCCCN)NC(=O)[C@@H]4CCCN4C(=O)[C@H](CCCCN)NC(=O)CNC(=O)[C@@H]4CCCN4C(=O)[C@H](CCCCN)NC(=O)[C@@H]4CCCN4C3=O)cccc12` (stereo partly specified) (cyclo(GKPKPGK(X1)PKP)): the IC50 in assay [1] amounted to 2000 nM.

`CCOC(=O)c1c(/N=C/c2c3ccccc3nc3ccccc23)sc2c1CCC2` showed a K in the assay on DNA of 1 ×10⁴ /M.

For the compound `NC(=O)c1c(/N=C/c2c3ccccc3nc3ccccc23)sc2c1CCC2`, the K in the assay on DNA turned out to be 1 ×10⁴ /M.

`CCOc1ccc2nc3c(I)c(N)ccc3c(NCCCNCCCNCCn3cnc4c(N)ncnc43)c2c1` gave a K with Calf thymus DNA of 10000 to 1e+06 M⁻¹.

Regarding `O=C(/C=C/c1ccc([N+](=O)[O-])cc1)NCCCCCCNc1c2c(nc3ccccc13)CCCC2`, the IC50 against Cholinesterase is 6.5 nM; against Acetylcholinesterase [2] it was 2.7 nM.

For the compound `N#Cc1c(/N=C/c2c3ccccc3nc3ccccc23)sc2c1CCC2`, the K in the assay on DNA is 1 ×10⁴ /M.

For the compound `COc1ccc2nc3cc(Cl)ccc3c(Nc3sc4c(c3C#N)CCC4)c2c1`, in the assay on DNA, the K came to 1 ×10⁴ /M.

For the compound `COc1cc2nc3cc([N+](=O)[O-])ccc3c(NCCCNCCCNCCn3cnc4c(N)ncnc43)c2cc1OC`, in the assay on Calf thymus DNA, the K fell in the range of 10000 to 1e+06 M⁻¹.

On to `Fc1ccc(N2CCN(c3c4ccccc4nc4c(Cl)cccc34)CC2)cc1`, for which the 50% inhibitory concentration (IC50) against Acetylcholinesterase [3] stood at 330 nM.

With `CCOc1ccc2nc3cc(N)ccc3c(NCCCNCCCNCCn3cnc4c(N)ncnc43)c2c1`, the K with Calf thymus DNA was 10000 to 1e+06 M⁻¹.

Take `O=C(NCCCCCNc1c2c(nc3ccccc13)CCCC2)c1c2ccccc2nc2ccccc12`: the IC50 amounted to 0.0017 nM against Cholinesterase and 0.0076 nM against Acetylcholinesterase [2].

On to `Cc1cc(C)c(S(=O)(=O)Nc2ccc(C3C4=C(CC(C)(C)CC4=O)N(c4ccc(Br)cc4)C4=C3C(=O)CC(C)(C)C4)cc2)c(C)c1`, for which the IC50 against Acetylcholinesterase [2] came out at 140 nM. That is a sub-micromolar value.

A word on the IC50: it is the concentration that inhibits the measured activity by half.
